Experimental data from patent publication US6730480B1, “Sphingosine kinase enzyme” (Johnson & Johnson Pharmaceutical Research and Development …, priority 1999, dated 2004).
Entries after “also recorded” stand apart in the source; their conditions may differ.

Tests used:
[1] = molecular target: T1, recombinant human sphingosine kinase (Homo sapiens, UniProt Q9NYA1); assay: Sphingosine kinase enzyme assay with recombinant human SK expressed in E. coli; assay type: biochemical; settings: for Substrate specificity (phosphorylation by the enzyme): substrates at 100 μM in 0.25% Triton X-100, relative to sphingosine; for Km / Km (mol %): substrate kinetics; for Effect of phospholipid on sphingosine kinase activity: phospholipid at 10 mol% of Triton X-100; for kcat: Triton X-100 mixed micelles; for Km (mol %): mol % of Triton X-100 (0.25% w/v); for Metal ion requirement (sphingosine kinase activity): metal ions or EDTA at 10 mM
T1 construct: The full length SPHK cDNA cloned into pGEX4T2 was transformed into E. coli BL21; GST (N, cleaved yes); made in house; host or cells: E. coli BL21
Procedure: Sphingosine kinase activity was routinely determined using D-erythro-sphingosine and [γ^32P]ATP as substrates, essentially as previously described (Olivera et al., 1998) with some modifications. […] Reactions were terminated and sphingosine-1-phosphate extracted by the addition of 700 μl of chloroform/methanol/HCl (100:200:1. v/v), followed by vigorous mixing, addition of 200 μp of chloroform and 200 μl of 2 M KCl, and phase separation by centrifugation. […] Sunnyvale, Calif.). One unit (U) of activity is defined as 1pmol of S1P formed per minute. The full length SPHK cDNA cloned into pGEX4[…]. coli BL21. Overnight cultures (100 ml) of transformed isolates were grown with shaking (200 rpm) at 30° C. in Superbroth (20 g/L glucose, 35 g/L tryptone, 20 g/L yeast extract, 5 g/L NaCl, pH 7.5) medium containing ampicillin (100 mg/L). The cultures were diluted 1:20 in fresh medium and grown at 30° C. with shaking to an OD600 of 0.6-0.7. Expression of the glutathione-s-transferase (GST)-coupled sphingosine kinase (GST-SK) was then induced by addition of 0.1 mM isopropyl-β-D-thiogalactoside and further incubation of the cultures at 30° C. for 3 h. After this time the bacterial cells were then harvested by centrifugation at 6,000 g for 20 min at 4° C. and resuspended in 20 ml of buffer B containing 250 mM NaCl. the cells were then lysed with lysozyme at a final concentration of 0.3 mg/ml for 15 min at 25° C. followed by sonication, consisting of three cycles of 20 s ultrasonic pulses followed by one minute cooling. The lysate was then clarified by centrifugation at 50,000 g for 45 min at 4° C., followed by filtrating through 0.22 μm filters. To be filtered supernatant was then incubated with 0.2 volumes of 50% (w/v) glutathione-Sepharose 4B (Pharmacia) that was washed and pro-equilibrated with buffer B, for 60 min at 4° C. with constant mixing. After this time the mixture was poured into a glass chromatography column (10 mm diam.) and the beads (with bound GST-SK) washed with 10 column volumes of buffer B at 4° C. The GST-SK was then eluted from the column in 10 ml of buffer B containing 10 mM reduced glutathione. Cleavage of the GST away from sphingosine kinase was then performed by incubation with 20 μg (30 N.I.H. units) thrombin (Pharmacia) for 3 h at 25° C. The released sphingosine kinase was then purified by application of the cleavage mix to a calmodulin-Sepharose column and then a Mono-Q anion exchange column for the purification of the sphingosine kinase from human placenta. […] Similarly, thermal stabilities were determined by assaying the residual activity after pre-incubation of the enzymes at various temperatures (4-80° C.) for 30 min at pH 7.4 (50 mM Tris/HCl containing 10% glycerol, 0.5 M NaCl and 0.05% Triton X-100). Substrate kinetics were analysed using Michaelis-Menten kinetics with a weighted non-linear regression program (Easterby, 1996). […] In both cases the data were analysed by non-linear regression. The effect of metal ions on the activity of the native and recombinant sphingosine kinases were determined by assaying the activity under standard conditions in the presence of various metal ions or EDTA at 10 mM. […] PC, phosphatidylcholine; PS phosphatidylserine; PE, […]; PI, phosphatidylinositol.

[2] = molecular target: T2, native sphingosine kinase (human placenta SK1) (Homo sapiens, UniProt Q9NYA1); assay: Sphingosine kinase enzyme assay with native SK purified from human placenta; assay type: biochemical; settings: for Substrate specificity (phosphorylation by the enzyme): substrates at 100 μM in 0.25% Triton X-100, relative to sphingosine; for Km / Km (mol %): substrate kinetics; for Effect of phospholipid on sphingosine kinase activity: phospholipid at 10 mol% of Triton X-100; for kcat: Triton X-100 mixed micelles; for Km (mol %): mol % of Triton X-100 (0.25% w/v); for Metal ion requirement (sphingosine kinase activity): metal ions or EDTA at 10 mM
T2 construct: from tissue; host or cells: human placenta
Procedure: Sphingosine kinase activity was routinely determined using D-erythro-sphingosine and [γ^32P]ATP as substrates, essentially as previously described (Olivera et al., 1998) with some modifications. […] Reactions were terminated and sphingosine-1-phosphate extracted by the addition of 700 μl of chloroform/methanol/HCl (100:200:1. v/v), followed by vigorous mixing, addition of 200 μp of chloroform and 200 μl of 2 M KCl, and phase separation by centrifugation. […] Sunnyvale, Calif.). One unit (U) of activity is defined as 1pmol of S1P formed per minute. […] Similarly, thermal stabilities were determined by assaying the residual activity after pre-incubation of the enzymes at various temperatures (4-80° C.) for 30 min at pH 7.4 (50 mM Tris/HCl containing 10% glycerol, 0.5 M NaCl and 0.05% Triton X-100). Substrate kinetics were analysed using Michaelis-Menten kinetics with a weighted non-linear regression program (Easterby, 1996). […] In both cases the data were analysed by non-linear regression. The effect of metal ions on the activity of the native and recombinant sphingosine kinases were determined by assaying the activity under standard conditions in the presence of various metal ions or EDTA at 10 mM. […] PC, phosphatidylcholine; PS phosphatidylserine; PE, […]; PI, phosphatidylinositol.

[3] = ADP 0.1 to 5 mM, with respect to ATP
[4] = inhibitor 2 to 50 μM, mol % of Triton X-100
[5] = listed as N,N,N, -trimethylsphingosinei

T1 sequence (Q9NYA1 whole entry): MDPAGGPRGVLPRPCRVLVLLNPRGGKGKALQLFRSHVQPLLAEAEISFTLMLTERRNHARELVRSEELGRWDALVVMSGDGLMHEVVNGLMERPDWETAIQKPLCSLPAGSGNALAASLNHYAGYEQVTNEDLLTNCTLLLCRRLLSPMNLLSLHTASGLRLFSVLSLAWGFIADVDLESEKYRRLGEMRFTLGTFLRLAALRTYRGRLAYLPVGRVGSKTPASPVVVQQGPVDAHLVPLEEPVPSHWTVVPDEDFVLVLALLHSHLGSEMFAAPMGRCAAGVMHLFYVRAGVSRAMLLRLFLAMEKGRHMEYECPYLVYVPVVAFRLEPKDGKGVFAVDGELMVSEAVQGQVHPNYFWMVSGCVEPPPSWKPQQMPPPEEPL
T2 sequence (Q9NYA1 whole entry): as above

`CCCCCCCCCCCCC/C=C/[C@@H](O)[C@H](CO)NC(C)=O` [N-acetylsphingosine] was tested, and the “Inhibition of sphingosine kinase (kind of inhibition)” value (“Inhibition of sphingosine kinase” for short) [1] was “No inhibition”, the “Substrate specificity (phosphorylation by the enzyme)” value (“Substrate specificity” for short) [1] was “not phosphorylated; also recorded: No phosphorylation” and the “Inhibition of sphingosine kinase” value [2] was “No inhibition”. The “Substrate specificity” value [2] was “not phosphorylated; also recorded: No phosphorylation”.
In the case of `CCCCCCCC/C=C\CCCCCCCC(=O)OC[C@H](CO)OC(=O)CCCCCCC/C=C\CCCCCCCC` [1,2-dioleoyl-sn-glycerol], the “Substrate specificity” value [1] is reported as “not phosphorylated; also recorded: No phosphorylation” and the “Substrate specificity” value [2] is reported as “not phosphorylated; also recorded: No phosphorylation”.
Work on `Nc1ncnc2c1ncn2[C@@H]1O[C@H](COP(=O)(O)OP(=O)(O)OP(=O)(O)O)[C@@H](O)[C@H]1O` [ATP] yielded a Km ([1]; bulk solution concentration) of 86 ± 12 µM and a Km ([2]; bulk solution concentration) of 77 ± 11 µM.
For L-α-phosphatidyldethanolamine, the “Effect of phospholipid on sphingosine kinase activity” value (“Effect of phospholipid” for short) [1] was “did not result in any detectable differences” and the “Effect of phospholipid” value [2] was “did not result in any detectable differences”.
With L-α-phosphatidylinositol the “Substrate specificity” value [1] was “not phosphorylated; also recorded: No phosphorylation” and the “Substrate specificity” value [2] was “not phosphorylated; also recorded: No phosphorylation”.
`CCCCCCCCCCCCCCC[C@@H](O)[C@@H](N)CO` [Dihydrosphingosine, D-erythro-dihydrosphingosine] was tested, and the kcat [1] was 76 S^−1, the Km ([1]; bulk solution concentration) was 19 ± 2 µM and the “Km (mol %)” value [1] was 0.48 ± 0.05 mol %. For the same compound, the “Substrate specificity” value [1] was “greatest activity”, the kcat [2] was 35 S^−1 and the Km ([2]; bulk solution concentration) was 20 ± 2 µM. For the same compound, the “Km (mol %)” value [2] was 0.50 ± 0.05 mol % and the “Substrate specificity” value [2] was “greatest activity”.
For `CCCCCCCCCCCCCCC[C@H](O)[C@@H](N)CO` (racemic) [DL-threo-dihydrosphingosine], the “Inhibition of sphingosine kinase” value [1] was “competitive inhibition”, the “Substrate specificity” value [1] was “not phosphorylated; also recorded: No phosphorylation” and the “Inhibition of sphingosine kinase” value [2] was “competitive inhibition”. The “Substrate specificity” value [2] was “not phosphorylated; also recorded: No phosphorylation”.
In the case of `CCCCCCCCCCCCCC[C@@H](O)[C@@H](O)[C@@H](N)CO` [phytosphingosine, Phytosphingosine], the “Substrate specificity” value [1] is reported as “Low activity” and the “Substrate specificity” value [2] is reported as “Low activity”.
With `CCCCCCCCCCCCC/C=C/[C@@H](O)[C@@H](N)CO` [Sphingosine, D-erythro-Sphingosine] the kcat [1] was 85 S^−1, the “Km (mol %)” value [1] was 0.30 ± 0.07 mol % and the “Substrate specificity” value [1] was “greatest activity”. The kcat [2] was 50 S^−1, the “Km (mol %)” value [2] was 0.35 ± 0.05 mol % and the “Substrate specificity” value [2] was “greatest activity”.
For `Nc1ncnc2c1ncn2[C@@H]1O[C@H](COP(=O)(O)OP(=O)(O)O)[C@@H](O)[C@H]1O` [ADP], the “Inhibition of sphingosine kinase” value [1] was “weak competitive inhibition”, the Ki [1, 3] was 900 ± 200 µM and the “Inhibition of sphingosine kinase” value [2] was “weak competitive inhibition”. It also gave a Ki [2, 3] of 1100 ± 300 µM.
In the case of `[Cu+2]` [Cu^2−], the “Metal ion requirement (sphingosine kinase activity)” value (“Metal ion requirement” for short) [1] is reported as “did not support sphingosine kinase activity” and the “Metal ion requirement” value [2] is reported as “did not support sphingosine kinase activity”.
In the case of `[Ca+2]` [Ca^2+], the “Metal ion requirement” value [1] is reported as “only very low activity” and the “Metal ion requirement” value [2] is reported as “only very low activity”.
In the case of `CCCC[C@@H](C)[C@@H](OC(=O)C[C@@H](CC(=O)O)C(=O)O)[C@H](C[C@@H](C)C[C@H](O)CCCC[C@@H](O)C[C@H](O)[C@H](C)N)OC(=O)C[C@@H](CC(=O)O)C(=O)O` [Fumosin B1], the “Inhibition of sphingosine kinase” value [1] is reported as “No inhibition” and the “Inhibition of sphingosine kinase” value [2] is reported as “No inhibition”.
With `CCCCCCCC(=O)OC[C@H](CO)OC(=O)CCCCCCC` [1,2-dioctanoyl-sn-glycerol] the “Substrate specificity” value [1] was “not phosphorylated; also recorded: No phosphorylation” and the “Substrate specificity” value [2] was “not phosphorylated; also recorded: No phosphorylation”.
For L-α-phosphatidylcholine, the “Effect of phospholipid” value [1] was “did not result in any detectable differences” and the “Effect of phospholipid” value [2] was “did not result in any detectable differences”.
For `[Mg+2]` [Mg^2+], the “Metal ion requirement” value [1] was “highest activity” and the “Metal ion requirement” value [2] was “highest activity”.
For `[Fe+2]` [Fe^2+], the “Metal ion requirement” value [1] was “did not support sphingosine kinase activity” and the “Metal ion requirement” value [2] was “did not support sphingosine kinase activity”.
In the case of `CCCCCCCCCCCCC/C=C/[C@@H](O)[C@H](CO)[N+](C)(C)C` [N,N,N-trimethylsphingosine], the “Inhibition of sphingosine kinase” value [1] is reported as “competitive inhibition”, the Ki ([1]; bulk solution concentration) is reported as 3.8 ± 1 µM and the “Ki (mol %)” value [1, 4] is reported as 0.10 ± 0.02 mol %. For the same compound, the “Substrate specificity” value [1] was “not phosphorylated”, the “Substrate specificity” value [1, 5] was “No phosphorylation” and the “Inhibition of sphingosine kinase” value [2] was “competitive inhibition”. For the same compound, the Ki ([2]; bulk solution concentration) was 4.6 ± 1 µM, the “Ki (mol %)” value [2, 4] was 0.12 ± 0.03 mol % and the “Substrate specificity” value [2] was “not phosphorylated”. The “Substrate specificity” value [2, 5] was “No phosphorylation”.
With `[Mn+2]` [Mn^2−] the “Metal ion requirement” value [1] was “somewhat lower activity” and the “Metal ion requirement” value [2] was “somewhat lower activity”.
With `O=C(O)CN(CCN(CC(=O)O)CC(=O)O)CC(=O)O` [EDTA] the “Metal ion requirement” value [1] was “elimated activity” and the “Metal ion requirement” value [2] was “elimated activity”.
In the case of `[Zn+2]` [ZN^2−], the “Metal ion requirement” value [1] is reported as “did not support sphingosine kinase activity” and the “Metal ion requirement” value [2] is reported as “did not support sphingosine kinase activity”.
